Series [1] deals with Mus musculus. Briefly: Reduction in […]-induced tactile hypersensitivity in C57BL/6 mouse at 10 ug/kg, ip relative to control. The class given is functional. The arrangement: scale not given: the % may be the effect or the level left.
In series [2] the test system is Mus musculus. Briefly: Induction of sedation in C57BL/6 mouse at 100 ug/kg, ip relative to control. As to conditions: in vivo, 0.1 mg/kg. Type of series: organism-based.
The subject of series [3] is Mus musculus. Kind of series: Reduction in […]-induced tactile hypersensitivity in C57BL/6 mouse at 1 ug/kg, po relative to control. The class given is functional. More on the design: scale not given: the % may be the effect or the level left.
Series [4] relates to Mus musculus. Kind of series: Induction of sedation in C57BL/6 mouse at 100 to 1000 ug/kg, po relative to control. Type of series: organism-based. As to conditions: in vivo.
In series [5] the test system is Mus musculus. Kind of series: Reduction in […]-induced tactile hypersensitivity in C57BL/6 mouse at 1 ug/kg, ip relative to control. Type of series: functional. The arrangement: scale not given: the % may be the effect or the level left.
For series [6], the system named is Mus musculus. Kind of series: Induction of sedation in C57BL/6 mouse at 100 to 1000 ug/kg, ip relative to control. The class given is organism-based. The settings on record: in vivo.
In series [7] the test system is Mus musculus. Kind of series: Reduction in sulprostone-induced tactile hypersensitivity in C57BL/6 mouse at 0.1 to 1000 ug/kg, po. The class given is functional.
The subject of series [8] is Mus musculus. Briefly: Induction of sedation in C57BL/6 mouse at 0.1 to 1000 ug/kg, po. The settings on record: in vivo.
For series [9], the target named is T1, Alpha-2C adrenergic receptor (Mus musculus, UniProt Q01337).
T1 sequence (Q01337 whole entry): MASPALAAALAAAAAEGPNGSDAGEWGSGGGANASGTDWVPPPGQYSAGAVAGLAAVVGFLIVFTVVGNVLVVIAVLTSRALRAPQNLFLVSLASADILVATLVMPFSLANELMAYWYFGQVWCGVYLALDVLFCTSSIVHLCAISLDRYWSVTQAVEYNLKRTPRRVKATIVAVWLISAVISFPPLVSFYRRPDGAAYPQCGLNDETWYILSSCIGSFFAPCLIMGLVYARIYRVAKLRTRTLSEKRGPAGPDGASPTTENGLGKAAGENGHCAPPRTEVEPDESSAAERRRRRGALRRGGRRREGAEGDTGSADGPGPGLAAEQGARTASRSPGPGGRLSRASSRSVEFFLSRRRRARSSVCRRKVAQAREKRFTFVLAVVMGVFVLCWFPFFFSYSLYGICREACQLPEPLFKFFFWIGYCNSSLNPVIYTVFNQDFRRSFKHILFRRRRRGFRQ
Briefly: Binding affinity to mouse alpha-2C receptor expressed in COS7 cells. Type of series: cell-based, COS-7.

The target in series [10] is T2, Alpha-2A adrenergic receptor (Mus musculus, UniProt Q01338).
T2 sequence (Q01338 whole entry): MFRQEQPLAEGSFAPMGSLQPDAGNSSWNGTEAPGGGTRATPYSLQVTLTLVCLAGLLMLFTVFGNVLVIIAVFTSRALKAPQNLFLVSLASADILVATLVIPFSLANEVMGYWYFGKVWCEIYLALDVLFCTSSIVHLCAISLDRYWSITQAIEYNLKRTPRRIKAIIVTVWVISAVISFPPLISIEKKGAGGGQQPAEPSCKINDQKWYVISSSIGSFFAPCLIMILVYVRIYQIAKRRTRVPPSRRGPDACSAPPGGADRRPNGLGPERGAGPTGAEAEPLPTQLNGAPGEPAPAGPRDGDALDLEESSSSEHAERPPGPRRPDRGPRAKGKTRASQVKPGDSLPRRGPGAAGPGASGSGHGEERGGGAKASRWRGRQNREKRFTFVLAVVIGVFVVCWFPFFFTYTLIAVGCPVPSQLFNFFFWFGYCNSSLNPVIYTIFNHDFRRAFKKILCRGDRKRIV
Briefly: Binding affinity to mouse alpha-2A receptor expressed in COS7 cells. The class given is cell-based, COS-7.

The source made the active and inactive calls. No cut-off for these calls is given here.

For the compound `OCC1=CCCC(Cc2c[nH]cn2)C1` (stereo not given), the Activity in series [1] is over 50%; in [2], under 30%.
For `Cc1cccc([C@H](C)c2c[nH]c(=S)[nH]2)c1C` [REZATOMIDINE], the Activity in [3] was 50%; in series [4] it was under 30%; in series [5], 50%; in series [6] it was under 30%; in series [8] it was “Non-Toxic”. Besides, in [7], the result was Active.
What is called Ki is a dissociation constant, usually derived from enzyme kinetics or from competition with a known ligand. As for `NC[C@H](O)c1ccc(O)c(O)c1` [NOREPINEPHRINE], the results for the Ki in [9] and in series [10] were 0.65 µM and 5.8 µM, respectively.

These data come from ChEMBL document CHEMBL3882386, “Novel methods for identifying improved, non-sedating alpha-2 agonists” (2005).
